Values quoted from earlier work as cited in patent US20230380414A1, “SYSTEMS, DEVICES AND METHODS FOR DELIVERING AEROSOLIZED FLUOROCARBONS” (BOUNDLESS SCIENCE, LLC, priority 2020, published 2023).
Like-named read-outs stand apart in the source and are kept apart here.

Columns and labels:
[1] = cited from earlier work
[2] = cited from earlier work; for Den: Table 1; for Specific Gravity: partial list of fluorinated and perfluorinated liquids
[3] = Table 1; cited from earlier work
[4] = cited from earlier work; for Spec. Ht Liq C: liquid
[5] = cited from earlier work; for Enthalpy of Vap. H: Table 1; for enthalpies of vaporization: running text
[6] = in water; cited from earlier work
[7] = Table 1; cited from earlier work; remark: listed apart in the source
[8] = @ 20° C.; cited from earlier work
[9] = partial list of fluorinated and perfluorinated liquids
[10] = Other perfluorinated liquids and their boiling points
[11] = commercial hydrofluoroalkanes, unit not given

OCC(F)(F)OC(F)(F)C(F)(F)OC(F)(F)C(F)(F)OC(F)(F)C(F)(F)C(F)(F)C(F)(F)F [1H,1H-Perfluoro-3,6,9-trioxatridecan-1-ol]
Boiling point [1, 9]: 175-176 °C

OCC(F)(F)OC(F)(F)C(F)(F)OC(F)(F)C(F)(F)C(F)(F)C(F)(F)F [1H,1H-Perfluoro-3,6-dioxadecan-1-ol]
Boiling point [1, 9]: 150 °C

FC(F)C(F)(F)C(F)(F)C(F)(F)C(F)(F)C(F)F [1H,6H-Perfluorohexane, Dodecafluorohexane]
Boiling point [1, 9]: 93 °C

FC(F)C(F)(F)C(F)(F)C(F)(F)C(F)(F)C(F)(F)C(F)(F)C(F)F [1H,8H-Perfluorooctane, Hexadecafluorooctane]
Boiling point [1, 9]: 134 °C

OCC(F)(F)C(F)(F)C(F)(F)C(F)(F)F [1H, 1H-Perfluoro-1-pentanol, 1H, 1H-Nonafluoro-1-pentanol]
Boiling point [1, 9]: 110-111 °C

FC(F)C(F)(F)C(F)(F)C(F)(F)C(F)(F)C(F)(F)C(F)(F)F [1H-Perfluoroheptane, Pentadecafluoroheptane]
Boiling point [1, 9]: 97 °C

FC(F)C(F)(F)C(F)(F)C(F)(F)C(F)(F)C(F)(F)F [1H-Perfluorohexane, Tridecafluorohexane]
Boiling point [1, 9]: 70 °C

FC(F)C(F)(F)C(F)(F)C(F)(F)C(F)(F)C(F)(F)C(F)(F)C(F)(F)C(F)(F)F [1H-Perfluorononane, Nonadecafluorononane]
Boiling point [1, 9]: 138 °C

FC(F)C(F)(F)C(F)(F)C(F)(F)C(F)(F)C(F)(F)C(F)(F)C(F)(F)F [1H-Perfluorooctane, Heptadecafluorooctane]
Boiling point [1, 9]: 117 °C

FC(F)C(F)(F)C(F)(F)C(F)(F)C(F)(F)F [1H-Perfluoropentane, Undecafluoropentane]
Boiling point [1, 9]: 42 °C

FC(F)C(F)(F)C(F)(F)C(F)F [1H.4H-Perfluorobutane, Octafluorobutane]
Boiling point [1, 9]: 45 °C

OCC(F)(F)F [2,2,2-trifluoroethanol]
Boiling point [1, 10]: 78 °C

FC(F)(F)C(F)(F)C(F)(F)C(F)(F)C(F)(F)C(F)(F)F [C6F14]
Den [2]: 1.69 g/mL
Viscosity [3]: 0.979 cPs
Spec Ht gas C [4]: 0.78 KJ/Kg/C
Spec. Ht Liq C [4]: 0.71 KJ/Kg/C
Enthalpy of Vap. H [5]: 93 kJ/kg
Boiling point ([1]; Table 1): 69 °C

FC(C(F)(F)F)C(F)(F)F [HFA227ea ™]
Boiling point [1, 11]: −17

FCC(F)(F)F [HFA 134a ™]
Boiling point [1, 11]: −26

OCC(F)(F)C(F)(C(F)(F)F)C(F)(F)C(F)(F)C(F)(F)C(F)(C(F)(F)F)C(F)(F)F (stereo not drawn) [Perfluoro-3,7-dimethyloctan-1-ol, 3,7-Bis(trifluoromethyl)tridecafluorooctanol]
Solubility [6]: Insoluble in
Boiling point ([1]; 20 mmHg): 95° C./20

FC(F)(F)C(F)(C(F)(F)F)C(F)(C(F)(F)F)C(F)(F)F [Perfluoro-(2,3-Dimethylbutane), 1,1,1,2,3,4,4,4-Octafluoro-2,3-bis(trifluoromethyl)butane]
Specific Gravity [2]: 1.7729

FC(F)(F)C(F)(F)C(F)(F)C(F)(F)F [Perfluorobutane]
Den [2]: 1.63 g/mL
Viscosity [3]: 0.012 cPs
Spec Ht gas C [4]: 0.69 KJ/Kg/C
Spec. Ht Liq C [4]: 0.53 KJ/Kg/C
Enthalpy of Vap. H [5]: 88 kJ/kg
enthalpies of vaporization [5]: 88 kJ/kg
Boiling point [1, 10]: −1.7 °C
Boiling point ([1]; Table 1): −1.8 °C
Boiling point ([1]; Table 2): −1.7 °C
Boiling point ([1]; Table 4): −1.7 °C
Boiling point [1]: −1.7 C
Boiling point ([1]; listed as perfiiuorobutane): −1.7 °C

FC1(F)C(F)(F)C(F)(F)C2(F)C(F)(F)C(F)(F)C(F)(F)C(F)(F)C2(F)C1(F)F (stereo not drawn) [Perfluorodecalin, Octadecafluorodecalin]
Den [2]: 1.92 g/mL
Viscosity [3]: 5.100 cPs
Spec. Ht Liq C [4]: 1.05 KJ/Kg/C
Enthalpy of Vap. H [5]: 85 kJ/kg
O2 Solubility [7]: 49 ml/100 ml
Vapor Pressure [8]: 6 torr @ 20 °C

FC(F)(F)C(F)(F)C(F)(F)C(F)(F)C(F)(F)C(F)(F)F [Perfluorohexane]
Boiling point [1, 10]: 56.0 °C
Boiling point ([1]; Table 2): 56.0 °C
Boiling point ([1]; Table 4): 56.0 °C

FC(F)(F)C(F)(F)C(F)(F)C(F)(F)C(F)(F)C(F)(F)C(F)(F)C(F)(F)C(F)(F)F [Perfluorononane, Eicosafluorononane]
Specific Gravity [2]: 1.799

FC(F)(F)C(F)(F)C(F)(F)C(F)(F)C(F)(F)C(F)(F)C(F)(F)C(F)(F)F [Perfluorooctane, Octadecafluorooctane]
Den [2]: 1.77 g/mL
Specific Gravity [2]: 1.73
Viscosity [3]: 1.800 cPs
Enthalpy of Vap. H [5]: 76 kJ/kg
Boiling point ([1]; Table 1): 377 °C
Boiling point ([1]; Table 2): 103.0 °C
Boiling point ([1]; Table 4): 103.0 °C
Boiling point [1, 9]: 103-104 °C

FC(F)(F)C(F)(F)C(F)(F)C(F)(F)C(F)(F)C(F)(F)C(F)(F)C(F)(F)Br [Perfluorooctylbromide]
Boiling point [1, 10]: 142 °C
Boiling point ([1]; Table 2): 142 °C
Boiling point ([1]; Table 4): 142 °C

FC1(F)C(F)(F)C(F)(F)C2(F)C(F)(C1(F)F)C(F)(F)C(F)(F)C1(F)C(F)(F)C(F)(F)C(F)(F)C(F)(F)C12F (stereo not drawn) [Perfluoroperhydrophenanthrene]
Boiling point [1, 10]: 215 °C
Boiling point ([1]; Table 2): 215 °C
Boiling point ([1]; Table 4): 215 °C

COC(F)(F)C(F)(F)C(F)(F)C(F)(F)F [methyl perfluorobutylether]
Boiling point [1, 10]: 60 °C

COC(F)(F)C(F)(F)C(F)(F)F [methyl perfluoropropyl ether]
Boiling point [1, 10]: 34 °C

FC(F)(F)C(F)(F)C(F)(F)C(F)(F)N(C(F)(F)C(F)(F)C(F)(F)C(F)(F)F)C(F)(F)C(F)(F)C(F)(F)C(F)(F)F [perfluoro tributyl amine]
Boiling point [1, 10]: 178 °C
Boiling point ([1]; Table 2): 178 °C
Boiling point ([1]; Table 4): 178 °C

FC(F)(F)C(F)(F)C(F)(F)C(F)(F)C(F)(F)C(F)(F)C(F)(F)F [perfluoroheptane, Hexadecafluoroheptane]
Den [2]: 1.75 g/mL
Specific Gravity [2]: 1.72
Viscosity [3]: 0.900 cPs
Spec Ht gas C [4]: 0.82 KJ/Kg/C
Spec. Ht Liq C [4]: 0.64 KJ/Kg/C
Enthalpy of Vap. H [5]: 90 kJ/kg
Boiling point [1, 10]: 56.0 °C
Boiling point ([1]; Table 1): 82 °C
Boiling point ([1]; Table 2): 56.0 °C
Boiling point ([1]; Table 4): 56.0 °C
Boiling point [1, 9]: 80-82 °C

FC(F)(F)C(F)(F)C(F)(F)C(F)(F)C(F)(F)F [perfluoropentane]
Den [2]: 1.59 g/mL
Viscosity [3]: 0.460 cPs
Specific Heat ([4]; chilled aerosolized liquid): 1.05 KJ/Kg*C
Spec Ht gas C [4]: 1.02 KJ/Kg/C
Spec. Ht Liq C [4]: 1.05 KJ/Kg/C
Enthalpy of Vap. H [5]: 94 kJ/kg
enthalpies of vaporization [5]: 94 kJ/kg
Boiling point [1, 10]: 28.0 °C
Boiling point ([1]; Table 1): 30 °C
Boiling point ([1]; Table 2): 28.0 °C
Boiling point ([1]; Table 4): 28.0 °C
Boiling point ([1]; running text): 30 C
O2 Solubility [7]: 54 ml/100 ml

FC(F)(F)C(F)(F)C(F)(F)F [perfluoropropane]
Boiling point [1, 10]: −36.7 °C
Boiling point ([1]; Table 2): −36.7 °C
Boiling point ([1]; Table 4): −36.7 °C

FC(F)(F)C(F)(F)C(F)(F)C(F)(F)C(F)(F)N(C(F)(F)C(F)(F)C(F)(F)C(F)(F)C(F)(F)F)C(F)(F)C(F)(F)C(F)(F)C(F)(F)C(F)(F)F [perfluorotripentyl amine]
Boiling point [1, 10]: 215 °C
Boiling point ([1]; Table 2): 215 °C
Boiling point ([1]; Table 4): 215 °C

Perfluoro(triethylene glycol dimethyl ether) [Perfluorotetraglyme]
Boiling point [1, 9]: 138 °C

Perfluoro(triethylene glycol dimethyl ether) [Perfluorotriglyme]
Boiling point [1, 9]: 106 °C
